The text below walks through data of US10028931B2, “Synergistic compositions for treating microbial infections” (UNIVERSITY OF ROCHESTER, priority 2014, dated 2018).

The structures appear in SMILES notation. In brackets after ≈: the same amount, converted by molar mass. Like-named read-outs stand apart in the source and are kept apart here.

Assay [1] has as its system Staphylococcus aureus strain UAMS-1. Kind of assay: Antimicrobial susceptibility testing (MIC, broth microdilution). Type of assay: cell-based. The settings on record: S. aureus UAMS-1, Mueller Hinton broth, 37° C. Here is the method:
The RNase P inhibitors described herein were tested for antimicrobial activity toward Staphylococcus aureus strain UAMS-1. Individual wells of a 96-well microtiter plate were inoculated with ˜1×10^5 colony-forming units (CFU) of the indicated organism, containing two-fold increasing concentrations (from 0 to 256 μg mL^−1) of the indicated antibiotic or putative RnpA inhibitor, and incubated at 37° C. for 18 hours in Mueller Hinton broth. The MIC was defined as the lowest concentration of antibiotic in which there was no visible bacterial growth in the wells. Minimum bactericidal concentration testing was performed by enumerating the bacterial cells in each of the wells containing treatments at and above the MIC.
For orientation: Dilution methods test growth across graded concentrations, often in twofold steps.

In the next assay the target is T1, RnpA (Staphylococcus aureus, UniProt P0A0H5).
T1 sequence (P0A0H5 1-117): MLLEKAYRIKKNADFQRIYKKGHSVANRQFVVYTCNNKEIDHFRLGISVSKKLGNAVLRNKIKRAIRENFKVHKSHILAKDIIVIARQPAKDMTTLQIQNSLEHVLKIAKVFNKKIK
Kind of assay: RnpA mRNA degradation activity assay. Type of assay: biochemical. Here is the method:
The RNase P inhibitors described herein were tested for activity toward RnpA mRNA degradation activity. Either 1 μg of total S. aureus RNA or 1 pmol of in vitro synthesized spa mRNA was incubated with 20 pmol RnpA at 37° C. for 15 to 30 min in a reaction buffer (50 mM Tris-HCl pH 8.0, 2 mM NaCl, 2 mM MgCl2) in the absence or presence of the indicated compound. Reactions were stopped by adding an equal volume of 2×RNA loading dye (95% formamide, 0.025% SDS, 0.025% bromophenol blue, 0.025% xylene cyanol FF, 0.5 mM EDTA), run on a denaturing 1.0% agarose-0.66 M formaldehyde gel and stained with ethidium bromide. RNA substrates and corresponding degradation products were visualized using a FluorChem 5500 system (Alpha Innotech; San Leandro, Calif.). The inhibitory effects of the test compounds were measured using Image J densitometry software (National Institutes of Health; Bethesda, Md.) to quantify the signal intensity of the RNA band(s) in the negative control (RNA alone), positive control (RnpA+RNA+DMSO), and experimental samples (RnpA+RNA+test compound). The percent enzyme inhibition of test compounds was calculated using the following equation: Percent inhibition=[(experimental signal-positive control)/(negative control signal-positive control signal)]*100.

Assay [2] concerns the target T2, S. aureus RNase P (RnpA+rnpB) (Staphylococcus aureus, UniProt P0A0H5).
T2 sequence (P0A0H5 1-117): T1 sequence (P0A0H5 1-117)
Kind of assay: RNase P activity assay (precursor tRNA processing). Type of assay: biochemical. The settings on record: ptRNATyr processing, gel densitometry; read-out: RNase P IC50. Here is the method: The RNase P inhibitors described herein were tested for activity toward RNase P. S. aureus RNase P activity assays were performed in low salt buffer (50 mM Tris-HCl pH 8.0, 5 mM MgCl2) or in high salt buffer (50 mM Tris-HCl pH 8.0, 100 mM MgCl2, 800 mM NH4Cl). For all reactions, ptRNATyr, tRNATyr, or rnpB RNA species were first denatured by heating to 95° C. for 3 minutes, and then slowly cooling the mixtures to room temperature. RNase P was reconstituted by mixing an equal molar ratio of RnpB and RnpA for 15 min at 37° C. Precursor tRNA processing reactions (20 μL) were performed by mixing 1.25 pmol RNase P (RnpA+rnpB), RnpA, or rnpB with an equal volume of 2× low salt buffer or 2× high salt buffer and 10 pmol ptRNATyr. Mixtures were incubated for 15 min at 37° C. Reactions were stopped by adding 20 μL 2×RNA loading dye (95% formamide, 0.025% SDS, 0.025% bromophenol blue, 0.025% xylene cyanol FF, 0.5 mM EDTA), and 30 μL of each sample was electrophoresed in a 7 M urea/8% polyacrylamide gel and was then stained with ethidium bromide (0.5 μg/ml). Where indicated, reactions were repeated in the presence of the indicated amount of putative RnpA inhibitors or dimethyl sulfoxide (DMSO). A FluorChem 5500 imaging system was used to visualize the RNA, and the relative abundance of the mature tRNATyr band in the positive control (RNase P+DMSO) or in samples containing test compounds was measured using Image J densitometry software (NIH). The percent RNase P activity was then calculated using the following calculation: (test compound tRNATyr signal/positive control tRNATyr signal)*100.

The mark [3] stands for this setting: Staphylococcus aureus, UAMS1, 18 h, read-out: MIC.
The mark [4] stands for this setting: RnpA mRNA degradation, gel densitometry, read-out: RnpA IC50.

The term MIC denotes the lowest concentration that inhibits growth of the organism. The IC50 is the concentration that inhibits the measured activity by half. On to `CCc1ccc(OCc2ccc(C(=O)NNC(=S)NCC(C)C)o2)cc1` [ST5607293], for which the MIC in assay [1] (setting [3]) was > 128 µg/mL. Also, the IC50 (at RnpA (setting [4]); in assay [2]) was > 500 µM each time.

Consider `Cc1ccccc1OCC(=O)NNC(=S)NC(=O)/C=C/c1ccco1` [ST5524973], for which the MIC in assay [1] (setting [3]) stood at 32 µg/mL (≈ 89 µM). The results for the concentration for half-maximal inhibition (IC50) (at RnpA (setting [4]); in assay [2]) were 220 µM and 80 µM, respectively.

As to `CC(C)c1ccc(OCC(=O)NNC(=O)Cc2ccco2)cc1` [MC-190038], the MIC in assay [1] (setting [3]) is > 256 µg/mL. The IC50 (on RnpA (setting [4]); in assay [2]) was > 500 µM each time.

As for `CCCCC(=O)Nc1ccc(C(=O)NNC(=S)NC(=O)c2ccco2)cc1` [ST5526667], in assay [1] (setting [3]), the MIC was > 128 µg/mL. Further, the IC50 came to 80 µM at RnpA (setting [4]) and 90 µM in assay [2].

Take `CCOc1ccc(C(=O)NC(=S)NNC(=O)COc2ccc(C(C)CC)cc2)cc1` (stereo not drawn) [ST5528171]: the MIC in assay [1] (setting [3]) was 64 µg/mL (≈ 149 µM). In addition, the IC50 at RnpA (setting [4]) is > 500 µM; in assay [2], 280 µM.

With `Cc1ccccc1C(=O)NNC(=S)NC(=O)COc1ccccc1` [ST5521953], the MIC in assay [1] (setting [3]) turned out to be 32 µg/mL (≈ 93.2 µM). Moreover, the IC50 (on RnpA (setting [4]); in assay [2]) was > 500 µM throughout.

Take `O=C(NNC(=S)NC(=O)c1ccco1)c1ccncc1` [ST4145527]: in assay [1] (setting [3]), the MIC was > 128 µg/mL. Besides, the IC50 (at RnpA (setting [4]); in assay [2]) was > 500 µM throughout.

As to `O=C(NNC(=S)NC(=O)c1ccco1)c1cccnc1` [ST5254078], the MIC in assay [1] (setting [3]) was 128 µg/mL (≈ 441 µM). Further, the IC50 (at RnpA (setting [4]); in assay [2]) was > 500 µM throughout.

`O=C(NC(=S)NNC(=O)c1ccccc1O)c1ccco1` [ST5703881] displayed an MIC in assay [1] (18 hours) of 16 µg/mL (≈ 52.4 µM). For the same compound, the IC50 (on RnpA (setting [4]); in assay [2]) was > 500 µM each time.

With `CC(C)c1ccc(OCC(=O)NNC(=O)c2cc3ccccc3[nH]2)cc1` [MC-190051], the MIC in assay [1] (setting [3]) was determined as 128 µg/mL (≈ 364 µM). Further, the IC50 at RnpA (setting [4]) amounted to 45 µM; in assay [2] it was 2 µM.

In the case of `CCCCCCCC(=O)NC(=S)NNC(=O)COc1ccc(C(C)CC)cc1` (stereo not drawn) [ST5528863], in assay [1] (setting [3]), the MIC was > 128 µg/mL. Further, the results for the IC50 (on RnpA (setting [4]); in assay [2]) were > 500 µM and 490 µM, respectively.

Take `COc1ccc(OCC(=O)NNC(=S)NC(=O)c2ccco2)cc1` [MC-190070]: the MIC in assay [1] (setting [3]) turned out to be 64 µg/mL (≈ 183 µM). Moreover, the IC50 (on RnpA (setting [4]); in assay [2]) was > 500 µM throughout.

With `O=C(CNC(=O)C1CCCCC1)NNC(=S)NC(=O)c1ccco1` [ST5526682], the MIC in assay [1] (setting [3]) was > 128 µg/mL. Besides, the IC50 was > 500 µM on RnpA (setting [4]) and 200 µM in assay [2].

As to `Cc1ccc(C(=O)NNC(=S)NC(=O)c2ccco2)cc1` [ST5682777], in assay [1] (18 hours), the MIC came out at 16 µg/mL (≈ 52.7 µM). The IC50 on RnpA (setting [4]) was > 500 µM; in assay [2], 70 µM.

For the compound `CC(C)c1ccc(OCC(=O)NNC(=S)NC(=O)c2ccncc2)cc1` [MC-190050], the MIC in assay [1] (setting [3]) was determined as 128 µg/mL (≈ 344 µM). Besides, the figures for the IC50 (at RnpA; in assay [2]) were > 500 µM and 150 µM, respectively.

For `COc1cccc(OC)c1C(=O)NC(=S)NNC(=O)c1ccco1` [ST5638707], the MIC in assay [1] (setting [3]) turned out to be 128 µg/mL (≈ 366 µM). Further, the IC50 (on RnpA (setting [4]); in assay [2]) was > 500 µM in each case.

`COc1ccccc1OCC(=O)NNC(=S)NC(=O)c1ccco1` [ST5682778]: the MIC in assay [1] (setting [3]) was > 128 µg/mL. The IC50 (at RnpA (setting [4]); in assay [2]) was > 500 µM throughout.

Turning to `CC(C)CNC(=S)NNC(=O)c1ccc(COc2ccc(C(C)(C)C)cc2)o1` [ST5607017], the MIC in assay [1] (setting [3]) is > 128 µg/mL. Further, the IC50 on RnpA (setting [4]) was 70 µM; in assay [2], > 500 µM.

With `CC(C)COc1ccc(C(=O)NNC(=S)NC(=O)c2ccco2)cc1` [ST5529685], the MIC in assay [1] (setting [3]) was 64 µg/mL (≈ 177 µM). Besides, the IC50 (on RnpA (setting [4]); in assay [2]) was > 500 µM in each case.

For the compound `CC(C)(C)c1ccc(C(=O)Nc2ccc(C(=O)NNC(=S)NC(=O)c3ccco3)cc2)cc1` [ST5524997], the MIC in assay [1] (setting [3]) was 32 µg/mL (≈ 68.9 µM). Besides, the IC50 at RnpA (setting [4]) came to 300 µM; in assay [2], 70 µM.

`CC(C)c1ccc(OCC(=O)NNC(=O)c2cc3ccccc3n2C)cc1` [MC-190057]: in assay [1] (setting [3]), the minimum inhibitory concentration (MIC) is > 256 µg/mL. The IC50 at RnpA (setting [4]) was > 500 µM; in assay [2], 70 µM.
